The record followed here is publication PMC8624998, “Synthesis and Antiproliferative Evaluation of 3-Chloroazetidin-2-ones with Antimitotic Activity: Heterocyclic Bridged Analogues of Combretastatin A-4” (Pharmaceuticals, 2021).

Structures are written as SMILES. Read-outs that look alike come from different tables or passages of the source.

Assay type in all cases: cell-based
For one assay, the system named is HCT-2998. Nature of the assay: NCI-60 5 dose screen, Colon Cancer. The conditions noted are these: Homo sapiens.
The next assay has as its system MDA-MB-435. Nature of the assay: NCI-60 5 dose screen, Melanoma. Conditions: Homo sapiens.
The subject of the next assay is OVCAR-3. Nature of the assay: NCI-60 5 dose screen, Ovarian Cancer. The conditions noted are these: Homo sapiens.
The subject of another assay is MALME-3M. Nature of the assay: NCI-60 5 dose screen, Melanoma. The conditions noted are these: Homo sapiens.
For the next assay, the system named is SW-620. Nature of the assay: NCI-60 5 dose screen, Colon Cancer. The conditions noted are these: Homo sapiens.
In the next assay the test system is HCT-116. Nature of the assay: NCI-60 5 dose screen, Colon Cancer. Conditions: Homo sapiens.
In another assay the test system is KM12. Nature of the assay: NCI-60 5 dose screen, Colon Cancer. The conditions noted are these: Homo sapiens.
The subject of the next assay is HCT-15. Nature of the assay: NCI-60 5 dose screen, Colon Cancer. Conditions: Homo sapiens.
The subject of the next assay is T-47D. Nature of the assay: NCI-60 5 dose screen, Breast Cancer. The conditions noted are these: Homo sapiens, T47D.
Another assay has as its system COLO205. Nature of the assay: NCI-60 5 dose screen, Colon Cancer. Conditions: Homo sapiens, COLO 205.
The test system of a further assay is MCF-7 cells. Nature of the assay: Lactate dehydrogenase (LDH) assay for cytotoxicity. Conditions: Homo sapiens, MCF7; MCF-7, compound concentration 10 μM, 24 h; read-out: Lactate Dehydrogenase assay: % cell lysis (cell death). On the procedure: The toxicity and selectivity of 10n towards normal cells was investigated in the non-tumourigenic cell line HEK-293T (normal human epithelial embryonic kidney cells). […] The cytotoxic effect of selected 3-chloro-β-lactams 10e, 10f, 10i, 10n and 3,3-dichloro-β-lactams 11e and 11n in MCF-7 cells was initially determined using the lactate dehydrogenase (LDH) assay.
The cytotoxicity of selected compounds was determined using the CytoTox 96 non-radioactive cytotoxicity assay (Promega Corporation, Madison, WI, USA). Briefly, MCF-7 cells were seeded in a 96-well plate (200 μL per well), at a density of 2.5 × 10^4 cells/mL, and incubated for 24 h. The cells were then treated with selected β-lactam compounds as described above for the cell viability assay. […] Supernatant (50 μL) was removed from each well to a 96-well plate. Reconstituted ‘CytoTox 96® Reagent (50 μL) was added to each well and the plate was placed in the dark at 20 °C for 30 min. ‘Stop solution’ (50 μL) was added to each well and the samples were analysed at 490 nm using a Dynatech MR5000 plate reader. The percentage cell death at 10 μM was calculated.

The test system of another assay is DU-145. Nature of the assay: NCI-60 5 dose screen, Prostate cancer. Conditions: Homo sapiens.
The subject of another assay is SF-268. Nature of the assay: NCI-60 5 dose screen, CNS Cancer. Conditions: Homo sapiens.
The subject of another assay is EKVX. Nature of the assay: NCI-60 5 dose screen, NSC Lung Cancer. The conditions noted are these: Homo sapiens.
For another assay, the system named is RXF 393. Nature of the assay: NCI-60 5 dose screen, Renal Cancer. The conditions noted are these: Homo sapiens.
The subject of the next assay is SN12C. Nature of the assay: NCI-60 5 dose screen, Renal Cancer. Conditions: Homo sapiens.
The subject of a further assay is OVCAR-4. Nature of the assay: NCI-60 5 dose screen, Ovarian Cancer. The conditions noted are these: Homo sapiens.
A further assay relates to OVCAR-5. Nature of the assay: NCI-60 5 dose screen, Ovarian Cancer. Conditions: Homo sapiens.
In another assay the test system is M14. Nature of the assay: NCI-60 5 dose screen, Melanoma. Conditions: Homo sapiens.
Another assay has as its system SNB-75. Nature of the assay: NCI-60 5 dose screen, CNS Cancer. The conditions noted are these: Homo sapiens.

Consider `COc1ccc([C@H]2[C@H](Cl)C(=O)N2c2cc(OC)c(OC)c(OC)c2)cc1` (relative stereo) [Compound 10e trans, Trans-3-chloro-1-(3,4,5-trimethoxyphenyl)-4-(4-methoxyphenyl) azetidin-2-one], for which the GI50 (in general, the concentration that inhibits growth by half) in the assay on HCT-2998 (HCT-2998, read-out: GI50) came to 80.4 nM; in the assay on MDA-MB-435 (read-out: GI50), 22.6 nM; with OVCAR-3 (read-out: GI50), 24.1 nM; with MALME-3M (read-out: GI50), 88.4 nM; in the assay with SW-620 (read-out: GI50), 43.2 nM; in the assay with HCT-116 (read-out: GI50), 39.7 nM. For the same compound, the GI50 in the assay with KM12 (read-out: GI50) came to 39.3 nM; with HCT-15 (read-out: GI50), 50.4 nM; with T-47D (T-47D, read-out: GI50), 15800 nM; in the assay with COLO205 (COLO205, read-out: GI50), 49.2 nM; in the assay with DU-145 (read-out: GI50) it was 44.6 nM; in the assay on SF-268 (read-out: GI50), 158 nM. The GI50 worked out at 69.4 nM in the assay on EKVX (read-out: GI50); 27.1 nM in the assay on RXF 393 (read-out: GI50); 83.7 nM in the assay on SN12C (read-out: GI50); 106 nM in the assay on OVCAR-4 (read-out: GI50); 80.6 nM with OVCAR-5 (read-out: GI50); 39.6 nM in the assay with M14 (read-out: GI50). Moreover, the GI50 in the assay on SNB-75 (read-out: GI50) worked out at 38.2 nM. For the same compound, the cytotoxicity at 10 µM with MCF-7 cells was 5%.

As to `COc1ccc(/C=C\c2cc(OC)c(OC)c(OC)c2)cc1O` [CA-4, Combretastatin A-4], the cytotoxicity at 10 µM with MCF-7 cells stood at 12%.

Take `COc1ccc(C2C(Cl)C(=O)N2c2cc(OC)c(OC)c(OC)c2)cc1O` (stereo not shown) [Compound 10n, 3-Chloro-4-(3-hydroxy-4-methoxy-phenyl)-1-(3,4,5-trimethoxyphenyl)azetidin-2-one]: the cytotoxicity at 10 µM with MCF-7 cells amounted to 17%.

Consider `COc1ccc(C2N(c3cc(OC)c(OC)c(OC)c3)C(=O)C2(Cl)Cl)cc1O` (stereo not shown) [Compound 11n, 3,3-Dichloro-4-(3-hydroxy-4-methoxyphenyl)-1-(3,4,5-trimethoxyphenyl)azetidin-2-one], for which the GI50 with HCT-2998 was 53.4 nM; with MDA-MB-435 it was 20.2 nM; in the assay on OVCAR-3 it was 24.4 nM; in the assay with MALME-3M, 68.5 nM; in the assay on SW-620, 37.6 nM; with HCT-116, 32.8 nM. Further, the GI50 turned out to be 31.8 nM in the assay on KM12; 38.3 nM in the assay on HCT-15; 11600 nM in the assay with T-47D; 2910 nM in the assay on COLO205; 35.9 nM in the assay on DU-145; 51.4 nM in the assay with SF-268. Moreover, the GI50 with EKVX is 46.4 nM; in the assay with RXF 393, 30 nM; with SN12C, 44.6 nM; in the assay on OVCAR-4, 74.1 nM; in the assay with OVCAR-5, 312 nM; in the assay with M14 it was 31.3 nM. In the assay with SNB-75, it took 19.9 nM to inhibit growth by half (GI50). For the same compound, the cytotoxicity at 10 µM in the assay with MCF-7 cells turned out to be 8%.

Take `CCSc1ccc(C2C(Br)C(=O)N2c2cc(OC)c(OC)c(OC)c2)cc1` (stereo not shown) [Compound 16d, 3-Bromo-4-(4-(ethylthio)phenyl)-1-(3,4,5-trimethoxyphenyl)azetidin-2-one]: the GI50 turned out to be 673 nM in the assay with HCT-2998 (HCT-2998, read-out: GI50); 37.7 nM with MDA-MB-435 (read-out: GI50); 109 nM with OVCAR-3 (read-out: GI50); 11300 nM in the assay on MALME-3M (read-out: GI50); 236 nM in the assay on SW-620 (read-out: GI50); 222 nM in the assay with HCT-116 (read-out: GI50). Also, the GI50 with KM12 (read-out: GI50) is 202 nM; with HCT-15 (read-out: GI50), 210 nM; in the assay on T-47D (T-47D, read-out: GI50), 16900 nM; in the assay on COLO205 (COLO205, read-out: GI50), 230 nM; with DU-145 (read-out: GI50) it was 349 nM; with SF-268 (read-out: GI50), 1180 nM. The GI50 in the assay with EKVX (read-out: GI50) was found to be 639 nM; in the assay on RXF 393 (read-out: GI50), 170 nM; with SN12C (read-out: GI50) it was 925 nM; in the assay with OVCAR-4 (read-out: GI50) it was 1430 nM; in the assay with OVCAR-5 (read-out: GI50), 431 nM; in the assay on M14 (read-out: GI50), 128 nM. The GI50 in the assay on SNB-75 (read-out: GI50) is 509 nM.
